Data from US11713338B2, “Cyclic peptides multimers targeting α-4-β-7 integrin” (priority 2016, dated 2023).
pIC50: −log10 of the molar value.

Tests used:
[1] = biological target: T1, integrin α4β7 (RPMI8866 human cells adhering to MAdCAM-1) (Homo sapiens, UniProt P13612+P26010); assay: Integrin α4β7-MAdCAM cell adhesion assay (RPMI8866 cells); type: cell-based; conditions: RPMI8866 cells adhering to MAdCAM; read-out: RPMI8866 Adhesion α4β7/MAdCAM IC50
T1 construct: RMP18866 cells, which express integrin α4β7; host or cells: RPMI8866
T1 sequence (P13612 34-1032): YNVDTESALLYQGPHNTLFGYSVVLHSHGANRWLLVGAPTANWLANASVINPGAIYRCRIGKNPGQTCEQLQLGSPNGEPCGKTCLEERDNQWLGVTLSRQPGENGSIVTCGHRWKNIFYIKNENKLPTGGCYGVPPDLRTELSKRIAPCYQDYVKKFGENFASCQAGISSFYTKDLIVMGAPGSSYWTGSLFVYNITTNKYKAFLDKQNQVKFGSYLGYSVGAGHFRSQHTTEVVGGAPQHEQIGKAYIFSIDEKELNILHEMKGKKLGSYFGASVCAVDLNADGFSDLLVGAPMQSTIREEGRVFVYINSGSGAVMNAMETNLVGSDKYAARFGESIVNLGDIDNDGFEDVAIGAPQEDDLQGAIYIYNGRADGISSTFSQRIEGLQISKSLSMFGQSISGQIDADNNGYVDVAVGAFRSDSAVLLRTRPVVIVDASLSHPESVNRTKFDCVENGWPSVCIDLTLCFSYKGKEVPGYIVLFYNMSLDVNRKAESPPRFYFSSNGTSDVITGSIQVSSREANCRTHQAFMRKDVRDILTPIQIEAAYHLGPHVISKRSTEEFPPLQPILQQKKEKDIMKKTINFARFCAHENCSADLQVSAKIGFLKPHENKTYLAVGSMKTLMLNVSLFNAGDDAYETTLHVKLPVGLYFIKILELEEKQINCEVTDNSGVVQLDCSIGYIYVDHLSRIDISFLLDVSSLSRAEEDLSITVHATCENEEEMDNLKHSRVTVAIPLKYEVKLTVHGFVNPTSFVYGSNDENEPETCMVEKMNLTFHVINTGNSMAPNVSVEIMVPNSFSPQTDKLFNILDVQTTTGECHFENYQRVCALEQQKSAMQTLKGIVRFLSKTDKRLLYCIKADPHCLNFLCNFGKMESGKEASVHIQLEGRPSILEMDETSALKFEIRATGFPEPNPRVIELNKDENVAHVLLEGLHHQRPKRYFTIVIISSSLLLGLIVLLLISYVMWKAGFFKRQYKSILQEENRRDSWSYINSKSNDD
T1 sequence (P26010 20-798): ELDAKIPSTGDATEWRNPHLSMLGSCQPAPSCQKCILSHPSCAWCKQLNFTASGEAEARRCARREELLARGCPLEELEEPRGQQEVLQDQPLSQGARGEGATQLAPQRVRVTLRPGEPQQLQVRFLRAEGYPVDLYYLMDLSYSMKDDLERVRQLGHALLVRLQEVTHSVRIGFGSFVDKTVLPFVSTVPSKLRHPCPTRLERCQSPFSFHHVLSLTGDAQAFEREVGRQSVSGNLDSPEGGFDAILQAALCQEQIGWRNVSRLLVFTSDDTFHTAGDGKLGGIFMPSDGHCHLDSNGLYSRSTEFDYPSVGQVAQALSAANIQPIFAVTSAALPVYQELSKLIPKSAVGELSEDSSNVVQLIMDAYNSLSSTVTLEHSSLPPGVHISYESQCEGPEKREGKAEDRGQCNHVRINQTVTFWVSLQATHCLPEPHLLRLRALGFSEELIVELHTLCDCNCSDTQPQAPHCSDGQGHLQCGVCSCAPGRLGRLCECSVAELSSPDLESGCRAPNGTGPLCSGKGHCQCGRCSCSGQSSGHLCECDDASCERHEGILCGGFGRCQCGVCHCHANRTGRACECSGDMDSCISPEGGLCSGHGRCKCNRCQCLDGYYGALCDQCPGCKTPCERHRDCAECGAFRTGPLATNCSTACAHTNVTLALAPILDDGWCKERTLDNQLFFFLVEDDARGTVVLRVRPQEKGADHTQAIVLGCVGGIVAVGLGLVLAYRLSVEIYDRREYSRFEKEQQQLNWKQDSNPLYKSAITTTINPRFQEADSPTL
In short: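 Adhesion was read by calcein fluorescence. RPMI8866 cells were labelled at 10 million cells/ml with […] calcein (37° C., 30 min) and washed twice in PBS before reading. Dose-response values were corrected by subtracting cell-free control well fluorescence.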

[2] = biological target: T2, integrin α4β1 (RAMOS human cells adhering to VCAM-1) (Homo sapiens, UniProt P05556+P13612); assay: Integrin α4β1-VCAM cell adhesion assay (RAMOS cells); type: cell-based; conditions: Ramos cells adhering to VCAM; read-out: Ramos Adhesion α4β1/VCAM IC50
T2 construct: Ramos cells, which express integrin α4β1; host or cells: RAMOS
T2 sequence (P05556 21-798, one chain of several): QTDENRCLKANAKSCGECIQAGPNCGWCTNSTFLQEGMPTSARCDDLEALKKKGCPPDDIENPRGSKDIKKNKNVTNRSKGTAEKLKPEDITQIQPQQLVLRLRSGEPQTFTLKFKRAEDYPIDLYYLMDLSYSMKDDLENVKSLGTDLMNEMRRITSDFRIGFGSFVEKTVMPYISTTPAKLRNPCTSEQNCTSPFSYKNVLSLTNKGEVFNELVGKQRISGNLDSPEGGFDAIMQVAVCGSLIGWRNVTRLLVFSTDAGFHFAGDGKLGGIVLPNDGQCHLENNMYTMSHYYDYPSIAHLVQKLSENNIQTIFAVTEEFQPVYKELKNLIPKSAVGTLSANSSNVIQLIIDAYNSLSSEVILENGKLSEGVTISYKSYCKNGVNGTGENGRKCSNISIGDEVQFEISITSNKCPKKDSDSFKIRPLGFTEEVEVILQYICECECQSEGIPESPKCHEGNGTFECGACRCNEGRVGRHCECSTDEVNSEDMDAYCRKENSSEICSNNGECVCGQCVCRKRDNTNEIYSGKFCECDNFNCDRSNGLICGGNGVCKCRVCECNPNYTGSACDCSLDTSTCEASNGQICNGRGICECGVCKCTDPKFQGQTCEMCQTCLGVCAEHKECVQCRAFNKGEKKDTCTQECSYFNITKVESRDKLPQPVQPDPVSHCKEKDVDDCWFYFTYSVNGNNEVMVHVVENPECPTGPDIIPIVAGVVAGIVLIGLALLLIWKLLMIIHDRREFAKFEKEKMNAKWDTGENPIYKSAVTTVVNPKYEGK
In short: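 Human RAMOS cells loaded with calcein ([…] in PBS, 37° C, 30 min) allowed to adhere to VCAM-1-coated wells blocked with 1% milk. After PBS washes, adherent-cell fluorescence measured and cell-free well background subtracted to build dose-response.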

CC(C)C[C@@H]1NC(=O)C[C@H](CCCCN)N(C)C(=O)[C@H](CCCCNC(=O)c2cc(C(=O)NCCCC[C@@H]3NC(=O)[C@@H]4CCCN4[C@H](C(=O)NC(C)(C)C)[C@H](C)NC(=O)[C@H]([C@@H](C)O)NC(=O)[C@H](CC(=O)O)NC(=O)[C@H](CC(C)C)NC(=O)C[C@H](CCCCN)N(C)C3=O)cc(C(=O)NCCCC[C@@H]3NC(=O)[C@@H]4CCCN4[C@H](C(=O)NC(C)(C)C)[C@H](C)NC(=O)[C@H]([C@@H](C)O)NC(=O)[C@H](CC(=O)O)NC(=O)[C@H](CC(C)C)NC(=O)C[C@H](CCCCN)N(C)C3=O)c2)NC(=O)[C@@H]2CCCN2[C@H](C(=O)NC(C)(C)C)[C@H](C)NC(=O)[C@H]([C@@H](C)O)NC(=O)[C@H](CC(=O)O)NC1=O [Compound 538]
pIC50 [1]: 7.89 | pIC50 [2]: 5.12
